US7101915B1, “P-terphenyl compounds” (Shionogi & Co., Ltd., priority 1996, dated 2006)
Values after ≈ are worked out from the molar mass of the structure shown.

Experiments:
Type in all cases: cell-based
[1] = test system: C3H/HeN mouse splenocytes stimulated with Concanavalin A (Con A); assay: Suppressive effect on mitogenic activity of mouse splenocytes in vitro, Con A as mitogen (MTT); conditions: Con A 5 μg/ml as mitogen, 3 days
Experimental: (§1) Experiment 1 Suppressive Effect on a Mitogenic Activity of Mouse Splenocytes In Vitro
(§2) In 96-well microtiter plate 5×10^5 C3H/HeN mouse splenocytes suspended in 0.1 ml of 10% fetal bovine serum-fortified RPMI 1640 medium containing 2 mM of sodium bicarbonate, 50 units/ml of penicillin, 50 μg/ml of streptomycin and 5×10^−5 M of 2-mercaptoethanol were added. Then, 5 μg/ml of Concanavalin A (Con A) or 10 μg/ml of lipopolysaccharide (LPS) as a mitogen and the compound of a pre-determined concentration of the present invention were added to each well so that a final volume of each well reached 0.2 ml. Each compound of the present invention was dissolved in dimethylsulfoxide (DMSO) and diluted with the above RPMI 1640 medium to adjust the final concentration of 100 ng/ml or less. The splenocytes in the 96-well microtiter plate were cultivated at 37° C. for 3 days in an incubator keeping the humidity 100%, carbon dioxide 5% and air 95%. Then, 25 μl of 6 mg/ml MTT [3-(4,5-dimethylthiazol-2-yl)-2,5-diphenyltetrazolium bromide] (Sigma) was added to the each well and cultivated at 37° C. for 4 hours under the same conditions. After the cultivation, 50 μl of 0.02 N hydrochloric acid in 20% sodium dodecyl sulfate (SDS) was added to formazan generated and left at 37° C. for 24 hours for dissolving formazan. An absorption intensity (OD) of formazan generated in proportion to the number of living cells was measured with an immunoreader (InterMed) equipped with a 570 nm filter (The Journal of Immunological Method, 65, 55-63, 1983). The 50% inhibitory concentration of a cell proliferation (IC 50) was calculated from a correlation between the concentration of the compound of the present invention and the absorption intensity.

[2] = test system: mouse thymoma strain EL4 cells; assay: Anti-proliferative activity on EL4 cells (MTT); conditions: 3 days
Experimental: Experiment 2 Anti-Proliferative Activity on EL4 Cells
In 96-well microtiter plate 4×10^4/0.1 ml of mouse thymoma strain EL4 cells were added and 0.1 ml of the compound of the present invention was added to the mixture so that the concentration was in the range of 0-5,000 ng/ml. After the cultivation for 3 days, the IC50 was calculated by the MTT method as described in Experiment 1.

[3] = test system: C3H/HeN mouse splenocytes stimulated with lipopolysaccharide (LPS); assay: Suppressive effect on mitogenic activity of mouse splenocytes in vitro, LPS as mitogen (MTT); conditions: LPS 10 μg/ml as mitogen, 3 days
Experimental: as §1, §2

[4] = test system: IL-5 production of mouse T cell strain EL-4 (TPA); assay: Suppressive effect on the cytokine production of mouse T cell strain EL-4: IL-5; conditions: EL-4, TPA 10 ng/ml, 24 hours, ELISA
Experimental: (§3) Experiment 8 Suppressive Effect on the Cytokine Production of a Mouse T Cell Strain EL-4 In 48-well plate were added 2×10^5 mouse T cell strain EL-4 which were suspended in 0.2 ml of 1% fetal bovine serum-added RPMI 1640 medium (2 mM of sodium bicarbonate, 50 units/ml of penicillin, 50 μg/ml of streptomycin and 5×10^−5 M of 2-mercaptoethanol were added) and the compound of the present invention of a predetermined concentration. TPA was added as a cell stimulater at a final concentration of 10 ng/ml to adjust a final volume of each well to 0.4 ml. Each compound of the present invention was dissolved in DMSO and diluted with the above RPMI 1640 medium, and then for added at a final concentration of 100 ng/ml or less. The cells in the 48-well plate were cultivated in an incubator keeping the humidity 100%, carbon dioxide 5% and air 95% at 37° C. for 24 hours to collect a supernatant of each well. The amount of IL-2, IL-4 and IL-5 released in the medium of each well were measured with the ELISA kit (Amersham K. K.) to be taken as an index of the cytokine production of the cells. TPA free group (-TPA) was used as a control.

[5] = test system: IL-4 production of mouse T cell strain EL-4 (TPA); assay: Suppressive effect on the cytokine production of mouse T cell strain EL-4: IL-4; conditions: EL-4, TPA 10 ng/ml, 24 hours, ELISA
Experimental: as §3

[6] = test system: IL-2 production of mouse T cell strain EL-4 (TPA); assay: Suppressive effect on the cytokine production of mouse T cell strain EL-4: IL-2; conditions: EL-4, TPA 10 ng/ml, 24 hours, ELISA
Experimental: as §3

Structure (SMILES) | ConA IC50 [1] | EL-4 IC50 [2] | LPS IC50 [3] | also measured
COc1cc(-c2ccc(OCc3ccccc3)c(N)c2)c(OC)cc1-c1ccc(OS(C)(=O)=O)cc1 [Compound I-418] | 0.255 µg/mL | >10 µg/mL | 0.497 µg/mL | 
C/C=C/COc1ccc(-c2c(OC)cc(-c3ccc(O)cc3)c(OC)c2O)cc1O [Compound I-49] | 0.00889 µg/mL | 0.0317 µg/mL | 0.0162 µg/mL | 
COc1cc(-c2ccc(O)cc2)c(OC)c(O)c1-c1ccc(OCc2ccco2)c(O)c1 [Compound I-211] | <0.02 µg/mL | <0.02 µg/mL | <0.02 µg/mL | 
COCOc1c(OC)c(-c2ccc(OC)cc2)cc(OC)c1-c1ccc(OCc2ccccc2)c(O)c1 [Compound I-107] | 0.0006 µg/mL | 0.012 µg/mL | 0.0007 µg/mL | 
COc1cc(-c2ccc(O)cc2)c(OC)c(C)c1-c1ccc(OCC=C(C)C)c(O)c1 [Compound I-106] | 0.0006 µg/mL | 0.0027 µg/mL | 0.0004 µg/mL | 
COc1cc(-c2ccc(N(C)C)cc2)c(OC)c(OS(C)(=O)=O)c1-c1ccc(OCc2ccccc2)c(O)c1 [Compound I-360] | <0.02 µg/mL | 0.0998 µg/mL | <0.02 µg/mL | 
CC#CCOc1ccc(-c2c(OC)cc(-c3ccc(O)cc3)c(OC)c2O)cc1O [Compound I-40] | 0.0061 µg/mL | 0.0374 µg/mL | 0.0165 µg/mL | 
COc1cc(-c2ccc3c(c2)OCO3)c(OC)c(O)c1-c1ccc(OCC=C(C)C)c(O)c1 [Compound I-62] | 0.0292 µg/mL | 0.0234 µg/mL | 0.025 µg/mL | 
COc1cc(-c2ccc(O)cc2)c(OC)c(CO)c1-c1ccc(OCC=C(C)C)c(OS(C)(=O)=O)c1 [Compound I-12] | 0.0013 µg/mL | 0.0462 µg/mL | 0.0028 µg/mL | 
COc1ccccc1-c1cc(OC)c(-c2ccc(OCC=C(C)C)c(O)c2)c(O)c1OC [Compound I-276] | 0.0018 µg/mL | 0.2 µg/mL | 0.0031 µg/mL | 
C=C/C=C\COc1ccc(-c2c(OC)cc(-c3ccc(O)cc3)c(OC)c2O)cc1O [Compound I-175] | <0.02 µg/mL | <0.02 µg/mL | 0.0294 µg/mL | 
COc1cc(-c2ccc(OCc3ccccc3)c(O)c2)c(OC)cc1-c1ccc(OCc2ccccc2)c(O)c1 [Compound I-63] | 0.013 µg/mL | 0.016 µg/mL | 0.027 µg/mL | 
C/C=C\COc1ccc(-c2c(OC)cc(-c3ccc(O)cc3)c(OC)c2O)cc1O [Compound I-50] | 0.00383 µg/mL | 0.0119 µg/mL | 0.0092 µg/mL | 
C/C=C\COc1ccc(-c2c(OC)cc(-c3ccc(O)cc3)c(OC)c2O)cc1O [Compound I-173] | <0.02 µg/mL | <0.02 µg/mL | <0.02 µg/mL | 
COc1cc(-c2ccc(OCC=C(C)C)c(O)c2)c(OC)cc1-c1ccc(OCC=C(C)C)c(O)c1 [Compound I-66] | 0.00022 µg/mL | 0.00048 µg/mL | 0.00035 µg/mL | 
COc1cc(-c2ccc(O)cc2)c(OC)c(O)c1-c1ccc(OC/C=C/Br)c(O)c1 [Compound I-103] | 0.0034 µg/mL | 0.0046 µg/mL | 0.0037 µg/mL | 
COc1cc(-c2c(OC)cc(-c3ccc(O)cc3)c(OC)c2CO)ccc1OCC=C(C)C [Compound I-513] | 0.00689 µg/mL | 0.0618 µg/mL | 0.0111 µg/mL | 
COc1cc(-c2ccc(N(C)C)cc2)c(OC)c(O)c1-c1ccc(OCc2ccc(C)cc2)c(O)c1 [Compound I-256] | <0.02 µg/mL | 0.31 µg/mL | 0.0287 µg/mL | 
COCOc1c(OC)c(-c2ccc(OS(C)(=O)=O)cc2)cc(OC)c1-c1ccc(OCc2ccccc2)c(O)c1 [Compound I-163] | <0.02 µg/mL | <0.02 µg/mL | <0.02 µg/mL | 
COc1cc(-c2c(OC)cc(-c3ccc(OS(C)(=O)=O)cc3)c(OC)c2OS(C)(=O)=O)ccc1OCC=C(C)C [Compound I-248] | <0.01 µg/mL | 0.312 µg/mL | <0.01 µg/mL | 
COc1cc(-c2c(O)c(OC)c(-c3ccc(O)cc3)c(F)c2OC)ccc1OCC=C(C)C [Compound I-1107] |  |  |  | IC50 ([1]; Mus musculus, Splenocyte, 72 h, read-out: ConA IC50): 0.0058 µg/mL (≈ 0.0128 µM); IC50 ([2]; Mus musculus, 72 h, read-out: EL-4 IC50): 0.0341 µg/mL (≈ 0.075 µM); IC50 ([3]; Mus musculus, Splenocyte, 72 h): 0.0091 µg/mL (≈ 0.02 µM)
CC/C=C\COc1ccc(-c2c(OC)cc(-c3ccc(O)cc3)c(OC)c2O)cc1O [Compound I-9] | <0.02 µg/mL | <0.02 µg/mL | <0.02 µg/mL | 
COc1cc(-c2ccc(N(C)C)cc2)c(OC)c(O)c1-c1ccc(OCC=C(C)C)c(O)c1 [Compound I-255] | <0.02 µg/mL | <0.02 µg/mL | <0.02 µg/mL | 
COc1cc(-c2ccc(O)cc2)c(OC)c(O)c1-c1ccc(OCC=C(C)Cl)c(O)c1 [Compound I-41] | 0.00073 µg/mL | 0.00489 µg/mL | 0.00174 µg/mL | 
C=CCOc1ccc(-c2c(OC)cc(-c3ccc(O)cc3)c(OC)c2O)cc1O [Compound I-46] | 0.0106 µg/mL | 0.0675 µg/mL | 0.0239 µg/mL | 
COc1cc(-c2ccc(O)cc2)c(OC)c(O)c1-c1ccc(OC/C=C(/C)CO)c(O)c1 [Compound I-299] | 0.00553 µg/mL | 0.0136 µg/mL | 0.00785 µg/mL | 
COc1cc(-c2ccc(C(C)C)cc2)c(OC)c(OS(C)(=O)=O)c1-c1ccc(OCc2ccccc2)c(O)c1 [Compound I-361] | <0.02 µg/mL | 0.124 µg/mL | <0.02 µg/mL | 
C#CC(O)COc1ccc(-c2c(OC)cc(-c3ccc(O)cc3)c(OC)c2O)cc1O (stereo not drawn) [Compound I-301] | 0.00706 µg/mL | 0.0158 µg/mL | 0.011 µg/mL | IC50 IL-5 [4]: 0.12 µg/mL (≈ 0.284 µM); IC50 IL-4 [5]: <0.01 µg/mL; IC50 IL-2 [6]: 0.5 µg/mL (≈ 1.18 µM)
